Assay results from article PMC10786919, “Design-rules for stapled peptides with in vivo activity and their application to Mdm2/X antagonists” (Nature Communications, 2024).
Values after ≈ are worked out from the molar mass of the structure shown. Positions of bridges follow the written chain, without caps; N, C: chain ends. Non-standard residues stand in square brackets, D forms with d. Residues, ends and D or L forms follow the SMILES beside them. R8 = C=CCCCCCC[C@@](C)(N)C(=O)O; Cba = N[C@@H](CC1CCC1)C(=O)O; S5 = C=CCCC[C@](C)(N)C(=O)O

Key:
HCT116 cells = assay: Lactate dehydrogenase (LDH) release assay; assay type: cell-based
Outline: (§1)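 Membrane damage measured as lactate dehydrogenase release (CytoTox-ONE kit) from p53-responsive β-lactamase reporter HCT116 cells plated at 8000 per well. Final DMSO 0.5%; geometric mean reported from a minimum of three biological replicates.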

[1] = Lactate dehydrogenase (LDH) release assay; assay type: cell-based; conditions: LDH: Cytotoxicity assay: EC50
Outline: as §1

[2] = Solubility assay (kinetic solubility, PBS pH 7); assay type: physicochemical; conditions: pH 7, PBS; for solubility kinetic: pH 7, aqueous buffer, kinetic from dmso stock, read-out: Solubility
Outline: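 Reference standards were made by diluting the 10 mM stock to 100 µM in acetonitrile:methanol:DMSO 10:80:10. Solubility in µM was calculated as the sample peak area divided by the standard peak area, multiplied by the standard concentration.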

[3] = Experimental LogD (partition coefficient); conditions: for logD: not stated, Partition Coeff LogD

Row | SMILES | LDH: Cytotoxicity assay: % Effect (HCT116 cells) [%] | EC50 [1] [µM] | EPSA (physchem) [A^2] | solubility kinetic [2] [µM] | logD [3] | Solubility [2] | Partition Coeff LogD [3]
1 | CC(=O)N[C@H](CC(C)C)C(=O)N[C@H](C(=O)N[C@@H](Cc1ccccc1)C(=O)NC(C)(C)C(=O)N[C@@H](CCC(=O)O)C(=O)N[C@@H](Cc1ccc(O)cc1)C(=O)N[C@@H](Cc1c[nH]c2ccccc12)C(=O)N[C@@H](CCC(N)=O)C(=O)N[C@@H](CC(C)C)C(=O)N[C@@H](CC1CCC1)C(=O)NC(C)(C)C(=O)N[C@@H](CO)C(=O)N[C@@H](C)C(=O)N[C@@H](C)C(N)=O)[C@@H](C)O [MP-787] | 4.125 | > 50.6 | 190 | 24 (≈ 40 µg/mL) | 2.16 | – | –
2 | CC(=O)N[C@@H](CC(C)C)C(=O)N[C@H](C(=O)N[C@@H](C)C(=O)N[C@]1(C)CCCCCCC=CCCC[C@@](C)(C(=O)N[C@@H](CO)C(=O)N[C@@H](C)C(=O)N[C@H](C)C(N)=O)NC(=O)[C@H](CC2CCC2)NC(=O)[C@H](CC(C)C)NC(=O)[C@H](CCC(N)=O)NC(=O)[C@H](Cc2c[nH]c3ccccc23)NC(=O)[C@H](Cc2ccc(O)cc2)NC(=O)[C@H](CCC(=O)O)NC1=O)[C@@H](C)O [MP-671] (Ac-LTA[R8]EYWQL[Cba][S5]SA[dA]-NH2; staple 4-11) | 3.06 | > 50.6 | 199 | 74.3 (≈ 127 µg/mL) | 2.27 | – | –
3 | CC(=O)N[C@@H](CC(C)C)C(=O)N[C@H](C(=O)N[C@@H](Cc1ccccc1)C(=O)NC(C)(C)C(=O)N[C@@H](CCC(=O)O)C(=O)N[C@@H](Cc1ccc(O)cc1)C(=O)N[C@@H](Cc1c[nH]c2ccccc12)C(=O)N[C@H](CCC(N)=O)C(=O)N[C@@H](CC(C)C)C(=O)N[C@@H](CC1CCC1)C(=O)NC(C)(C)C(=O)N[C@@H](CO)C(=O)N[C@@H](C)C(=O)N[C@@H](C)C(N)=O)[C@@H](C)O [MP-786] | 7.785 | > 50.6 | 187 | 170 (≈ 283 µg/mL) | 1.99 | – | –
4 | CC(=O)N[C@@H](CC(C)C)C(=O)N[C@H](C(=O)N[C@@H](Cc1ccccc1)C(=O)N[C@]1(C)CCCCCCC=CCCC[C@@](C)(C(=O)N[C@@H](CO)C(=O)N[C@@H](C)C(=O)N[C@@H](C)C(N)=O)NC(=O)[C@H](CC2CCC2)NC(=O)[C@H](C)NC(=O)[C@H](C)NC(=O)[C@H](Cc2c[nH]c3ccccc23)NC(=O)[C@H](Cc2ccc(O)cc2)NC(=O)[C@H](CCC(=O)O)NC1=O)[C@@H](C)O [MP-865] (Ac-LTF[R8]EYWAA[Cba][S5]SAA-NH2; staple 4-11) | – | > 50.6 | 211 | 84.5 (≈ 143 µg/mL) | 2.94 | – | –
5 | CC(=O)N[C@@H](CC(C)C)C(=O)N[C@H](C(=O)N[C@@H](Cc1ccccc1)C(=O)N[C@]1(C)CCCCCCC=CCCC[C@@](C)(C(=O)N[C@@H](CO)C(=O)N[C@@H](C)C(=O)N[C@@H](C)C(N)=O)NC(=O)[C@H](CC2CCC2)NC(=O)[C@H](CC(C)C)NC(=O)[C@H](CCC(N)=O)NC(=O)[C@H](Cc2c[nH]c3ccccc23)NC(=O)[C@H](C)NC(=O)[C@H](CCC(=O)O)NC1=O)[C@@H](C)O [MP-363] (Ac-LTF[R8]EAWQL[Cba][S5]SAA-NH2; staple 4-11) | 4.97 | > 50.6 | 195 | – | 2.85 | – | –
6 | CC(=O)N[C@H](CC(C)C)C(=O)N[C@H](C(=O)N[C@@H](Cc1ccccc1)C(=O)N[C@]1(C)CCCCCCC=CCCC[C@@](C)(C(=O)N[C@@H](CO)C(=O)N[C@H](C)C(=O)N[C@@H](C)C(N)=O)NC(=O)[C@H](CC2CCC2)NC(=O)[C@H](CC(C)C)NC(=O)[C@H](CCC(N)=O)NC(=O)[C@H](Cc2c[nH]c3ccccc23)NC(=O)[C@H](Cc2ccc(O)cc2)NC(=O)[C@H](CCC(=O)O)NC1=O)[C@@H](C)O [MP-7201] | 4.51 | > 50 | 191 | 19 (≈ 34 µg/mL) | 2.8 | – | –
7 | CC(=O)N[C@@H](CC(C)C)C(=O)N[C@H](C(=O)N[C@@H](Cc1ccccc1)C(=O)NC(C)(C)C(=O)N[C@H](CCC(=O)O)C(=O)N[C@@H](Cc1ccc(O)cc1)C(=O)N[C@@H](Cc1c[nH]c2ccccc12)C(=O)N[C@@H](CCC(N)=O)C(=O)N[C@@H](CC(C)C)C(=O)N[C@@H](CC1CCC1)C(=O)NC(C)(C)C(=O)N[C@@H](CO)C(=O)N[C@@H](C)C(=O)N[C@@H](C)C(N)=O)[C@@H](C)O [MP-789] | 5.465 | > 50.6 | 196 | 28 (≈ 46.6 µg/mL) | 2.12 | – | –
8 | CC(=O)N[C@H](C)C(=O)N[C@H](C)C(=O)N[C@H](C)C(=O)N[C@H](C)C(=O)N[C@@H](CC(C)C)C(=O)N[C@H](C(=O)N[C@@H](Cc1ccccc1)C(=O)N[C@]1(C)CCCCCCC=CCCC[C@@](C)(C(=O)N[C@@H](CO)C(=O)N[C@@H](C)C(=O)N[C@@H](C)C(N)=O)NC(=O)[C@H](CC2CCC2)NC(=O)[C@H](CCC(N)=O)NC(=O)[C@H](C)NC(=O)[C@H](Cc2c[nH]c3ccccc23)NC(=O)[C@H](Cc2ccc(O)cc2)NC(=O)[C@H](CCC(=O)O)NC1=O)[C@@H](C)O [MP-365] | -0.1776 | > 50.6 | 210 | 76.3 (≈ 155 µg/mL) | 2.6 | – | –
9 | CC(=O)N[C@@H](CC(C)C)C(=O)N[C@H](C(=O)N[C@@H](Cc1ccccc1)C(=O)NC(C)(C)C(=O)N[C@@H](CCC(=O)O)C(=O)N[C@@H](Cc1ccc(O)cc1)C(=O)N[C@@H](Cc1c[nH]c2ccccc12)C(=O)N[C@@H](CCC(N)=O)C(=O)N[C@H](CC(C)C)C(=O)N[C@@H](CC1CCC1)C(=O)NC(C)(C)C(=O)N[C@@H](CO)C(=O)N[C@@H](C)C(=O)N[C@@H](C)C(N)=O)[C@@H](C)O [MP-788] | 8.3 | > 50.6 | 196 | 83.5 (≈ 139 µg/mL) | 2.06 | – | –
10 | CC(=O)N[C@@H](C)C(=O)N[C@@H](C)C(=O)N[C@@H](C)C(=O)N[C@@H](C)C(=O)N[C@@H](CC(C)C)C(=O)N[C@H](C(=O)N[C@@H](Cc1ccccc1)C(=O)N[C@]1(C)CCCCCCC=CCCC[C@@](C)(C(=O)N[C@@H](CO)C(=O)N[C@@H](C)C(=O)N[C@@H](C)C(N)=O)NC(=O)[C@H](CC2CCC2)NC(=O)[C@H](CCC(N)=O)NC(=O)[C@H](C)NC(=O)[C@H](Cc2c[nH]c3ccccc23)NC(=O)[C@H](Cc2ccc(O)cc2)NC(=O)[C@H](CCC(=O)O)NC1=O)[C@@H](C)O [MP-360] | 2.492 | > 50.6 | 219 | 24.7 (≈ 50.1 µg/mL) | 3.24 | – | –
11 | CC(=O)N[C@@H](CC(C)C)C(=O)N[C@H](C(=O)N[C@@H](Cc1ccccc1)C(=O)N[C@]1(C)CCCCCCC=CCCC[C@@](C)(C(=O)N[C@@H](CO)C(=O)N[C@@H](C)C(=O)N[C@@H](C)C(N)=O)NC(=O)[C@H](CC2CCC2)NC(=O)[C@H](CC(C)C)NC(=O)[C@H](CCC(N)=O)NC(=O)[C@@H](Cc2c[nH]c3ccccc23)NC(=O)[C@H](Cc2ccc(O)cc2)NC(=O)[C@H](CCC(=O)O)NC1=O)[C@@H](C)O [MP-594] | 35.22 | 14.8 | 203 | 11 (≈ 19.7 µg/mL) | 2.83 | – | –
12 | CC(=O)N[C@@H](CC(C)C)C(=O)N[C@H](C(=O)N[C@@H](Cc1ccccc1)C(=O)N[C@]1(C)CCCCCCC=CCCC[C@@](C)(C(=O)N[C@@H](CO)C(=O)N[C@@H](C)C(=O)N[C@@H](C)C(N)=O)NC(=O)[C@H](CC2CCC2)NC(=O)[C@H](CC(C)C)NC(=O)[C@H](CCC(N)=O)NC(=O)[C@H](C)NC(=O)[C@H](Cc2ccc(O)cc2)NC(=O)[C@H](CCC(=O)O)NC1=O)[C@@H](C)O [MP-364] (Ac-LTF[R8]EYAQL[Cba][S5]SAA-NH2; staple 4-11) | 68.78 | 16 | 196 | – | – | Poorly Behaved | Poorly Behaved
13 | CC(=O)N[C@@H](CC(C)C)C(=O)N[C@H](C(=O)N[C@@H](Cc1ccccc1)C(=O)N[C@]1(C)CCCCCCC=CCCC[C@@](C)(C(=O)N[C@@H](CO)C(=O)N[C@@H](C)C(=O)N[C@@H](C)C(N)=O)NC(=O)[C@H](CC2CCC2)NC(=O)[C@H](CCC(N)=O)NC(=O)[C@H](CCC(N)=O)NC(=O)[C@H](Cc2c[nH]c3ccccc23)NC(=O)[C@H](Cc2ccc(O)cc2)NC(=O)[C@H](CCC(=O)O)NC1=O)[C@@H](C)O [MP-864] (Ac-LTF[R8]EYWQQ[Cba][S5]SAA-NH2; staple 4-11) | – | > 50.6 | 212 | 86.5 (≈ 156 µg/mL) | 2.59 | – | –
